GI50 and TGI data for 1 compound are collected here from PubChem BioAssay (NCI).

The structures appear in SMILES notation.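 Test compounds were applied to cells in 96-well plates for 48 hours at 5 doses. The concentration for 50% growth inhibition is given as GI50. The concentration for full growth arrest is given as TGI.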

What all share (experiment): DTP human tumour cell line panel, 48 h
Test [1] deals with SR leukemia.
In test [2] the test system is SNB-19 CNS.
Test [3] has as its system MOLT-4 leukemia.
The test system of test [4] is OVCAR-3 ovarian.
The subject of test [5] is ACHN renal.
The test system of test [6] is UACC-62 melanoma.
For test [7], the system named is OVCAR-4 ovarian.
Test [8] deals with UACC-257 melanoma.
The subject of test [9] is NCI-H23 lung.
Test [10] concerns SNB-75 CNS.

In general, GI50 refers to the concentration giving 50% growth inhibition. What is called TGI is the concentration at which net growth stops. In the case of `Cn1c(-c2ccccc2)c(/C=C/C2=[N+](C)c3ccccc3C2(C)C)c2ccccc21`, the GI50 in test [1] is 433 nM; in test [2], 571 nM; in [3], 1060 nM; in test [4], 664 nM; in test [5], 3050 nM; in test [6], 600 nM. Further, the GI50 in [7] was 1810 nM; in test [8] it was 405 nM; in test [9] it was 784 nM; in test [10] it was 1630 nM. Moreover, the concentration for total growth inhibition (TGI) came out at 5770 nM in test [1]; 15500 nM in test [2]; 4060 nM in [3]; 6370 nM in test [4]; 11700 nM in [5]; 3970 nM in test [6]. In addition, the TGI in test [7] came to 14400 nM; in [8], 2530 nM; in test [9] it was 5170 nM; in test [10], 10700 nM.
